Measurements: ChEMBL document CHEMBL2380247, “Synthesis and biological evaluation of novel aliphatic amido-quaternary ammonium salts for anticancer chemotherapy: part II” (2013)

Key:
Assay type in all cases: functional
MDA-MB-231 [1] = assay: Antiproliferative activity against human MDA-MB-231 cells by SRB assay
HCT-15 [2] = assay: Antiproliferative activity against human HCT15 cells by SRB assay
MDA-MB-231 [3] = assay: Antiproliferative activity against human MDA-MB-231 cells at 10 uM by SRB assay
NUGC-3 [4] = assay: Antiproliferative activity against human NUGC3 cells at 0.1 uM by SRB assay
NUGC-3 [5] = assay: Antiproliferative activity against human NUGC3 cells at 10 uM by SRB assay
NCI-H23 [6] = assay: Antiproliferative activity against human NCI-H23 cells at 3 uM by SRB assay
MDA-MB-231 [7] = assay: Antiproliferative activity against human MDA-MB-231 cells at 1 uM by SRB assay
NCI-H23 [8] = assay: Antiproliferative activity against human NCI-H23 cells at 0.1 uM by SRB assay
NUGC-3 [9] = assay: Antiproliferative activity against human NUGC3 cells at 3 uM by SRB assay
ACHN [10] = assay: Antiproliferative activity against human ACHN cells at 0.1 uM by SRB assay
NCI-H23 [11] = assay: Antiproliferative activity against human NCI-H23 cells at 0.3 uM by SRB assay
NCI-H23 [12] = assay: Antiproliferative activity against human NCI-H23 cells by SRB assay
HCT-15 [13] = assay: Antiproliferative activity against human HCT15 cells at 10 uM by SRB assay
NUGC-3 [14] = assay: Antiproliferative activity against human NUGC3 cells at 1 uM by SRB assay
PC-3 [15] = assay: Antiproliferative activity against human PC3 cells at 3 uM by SRB assay
NCI-H23 [16] = assay: Antiproliferative activity against human NCI-H23 cells at 10 uM by SRB assay
MDA-MB-231 [17] = assay: Antiproliferative activity against human MDA-MB-231 cells at 0.1 uM by SRB assay
HCT-15 [18] = assay: Antiproliferative activity against human HCT15 cells at 1 uM by SRB assay
ACHN [19] = assay: Antiproliferative activity against human ACHN cells at 0.3 uM by SRB assay
PC-3 [20] = assay: Antiproliferative activity against human PC3 cells at 10 uM by SRB assay
ACHN [21] = assay: Antiproliferative activity against human ACHN cells by SRB assay
HCT-15 [22] = assay: Antiproliferative activity against human HCT15 cells at 3 uM by SRB assay
PC-3 [23] = assay: Antiproliferative activity against human PC3 cells by SRB assay
NUGC-3 [24] = assay: Antiproliferative activity against human NUGC3 cells at 0.3 uM by SRB assay
HCT-15 [25] = assay: Antiproliferative activity against human HCT15 cells at 0.1 uM by SRB assay
ACHN [26] = assay: Antiproliferative activity against human ACHN cells at 3 uM by SRB assay
PC-3 [27] = assay: Antiproliferative activity against human PC3 cells at 0.3 uM by SRB assay
NUGC-3 [28] = assay: Antiproliferative activity against human NUGC3 cells by SRB assay
MDA-MB-231 [29] = assay: Antiproliferative activity against human MDA-MB-231 cells at 3 uM by SRB assay
HCT-15 [30] = assay: Antiproliferative activity against human HCT15 cells at 0.3 uM by SRB assay
MDA-MB-231 [31] = assay: Antiproliferative activity against human MDA-MB-231 cells at 0.3 uM by SRB assay
NCI-H23 [32] = assay: Antiproliferative activity against human NCI-H23 cells at 1 uM by SRB assay
ACHN [33] = assay: Antiproliferative activity against human ACHN cells at 10 uM by SRB assay
ACHN [34] = assay: Antiproliferative activity against human ACHN cells at 1 uM by SRB assay
PC-3 [35] = assay: Antiproliferative activity against human PC3 cells at 0.1 uM by SRB assay
PC-3 [36] = assay: Antiproliferative activity against human PC3 cells at 1 uM by SRB assay

`CCCCCCCCCCCCCCCCCC(=O)NCC(C)(C)C[N+](C)(C)CC` was tested, and the GI50 (MDA-MB-231 [1]) was 1.12 µM, the GI50 (HCT-15 [2]) was 2.74 µM and the growth, % of control at 10 µM (MDA-MB-231 [3]) was 19.9%. It also gave a growth, % of control at 0.1 µM (NUGC-3 [4]) of 83.1%, a growth, % of control at 10 µM (NUGC-3 [5]) of 2.11% and a growth, % of control at 3 µM (NCI-H23 [6]) of 29.8%. It also gave a growth, % of control at 1 µM (MDA-MB-231 [7]) of 70.4%, a growth, % of control at 0.1 µM (NCI-H23 [8]) of 95.1% and a growth, % of control at 3 µM (NUGC-3 [9]) of 14.8%. For the same molecule, the growth, % of control at 0.1 µM (ACHN [10]) was 91.5%, the growth, % of control at 0.3 µM (NCI-H23 [11]) was 97.7% and the GI50 (NCI-H23 [12]) was 0.98 µM. It also gave a growth, % of control at 10 µM (HCT-15 [13]) of 32.6%, a growth, % of control at 1 µM (NUGC-3 [14]) of 52.5% and a growth, % of control at 3 µM (PC-3 [15]) of -38.3%. For the same molecule, the growth, % of control at 10 µM (NCI-H23 [16]) was -18.3%, the growth, % of control at 0.1 µM (MDA-MB-231 [17]) was 87.8% and the growth, % of control at 1 µM (HCT-15 [18]) was 86.8%. It also gave a growth, % of control at 0.3 µM (ACHN [19]) of 82.9%, a growth, % of control at 10 µM (PC-3 [20]) of -46.2% and a GI50 (ACHN [21]) of 1.95 µM. For the same molecule, the growth, % of control at 3 µM (HCT-15 [22]) was 61.6%, the GI50 (PC-3 [23]) was 0.3 µM and the growth, % of control at 0.3 µM (NUGC-3 [24]) was 69.6%. The growth, % of control at 0.1 µM (HCT-15 [25]) was 98%, the growth, % of control at 3 µM (ACHN [26]) was 50% and the growth, % of control at 0.3 µM (PC-3 [27]) was 82.2%. The GI50 (NUGC-3 [28]) was 0.42 µM, the growth, % of control at 3 µM (MDA-MB-231 [29]) was 40.4% and the growth, % of control at 0.3 µM (HCT-15 [30]) was 96.7%. It also gave a growth, % of control at 0.3 µM (MDA-MB-231 [31]) of 79.1%, a growth, % of control at 1 µM (NCI-H23 [32]) of 74.7% and a growth, % of control at 10 µM (ACHN [33]) of 33%. The growth, % of control at 1 µM (ACHN [34]) was 75.5%, the growth, % of control at 0.1 µM (PC-3 [35]) was 89.5% and the growth, % of control at 1 µM (PC-3 [36]) was 21.6%.
`CCCCCCCCCCCCCCCC(=O)N(C)CC[N+](C)(C)CC` gave a GI50 (MDA-MB-231 [1]) of 0.66 µM, a GI50 (HCT-15 [2]) of 1.01 µM and a growth, % of control at 10 µM (MDA-MB-231 [3]) of -4.7%. It also gave a growth, % of control at 0.1 µM (NUGC-3 [4]) of 99.1%, a growth, % of control at 10 µM (NUGC-3 [5]) of -11.1% and a growth, % of control at 3 µM (NCI-H23 [6]) of 30.6%. For the same molecule, the growth, % of control at 1 µM (MDA-MB-231 [7]) was 59.1%, the growth, % of control at 0.1 µM (NCI-H23 [8]) was 91.2% and the growth, % of control at 3 µM (NUGC-3 [9]) was 9.7%. The growth, % of control at 0.1 µM (ACHN [10]) was 110%, the growth, % of control at 0.3 µM (NCI-H23 [11]) was 84.4% and the GI50 (NCI-H23 [12]) was 0.58 µM. The growth, % of control at 10 µM (HCT-15 [13]) was 17.8%, the growth, % of control at 1 µM (NUGC-3 [14]) was 38.2% and the growth, % of control at 3 µM (PC-3 [15]) was -14.5%. For the same molecule, the growth, % of control at 10 µM (NCI-H23 [16]) was -9.2%, the growth, % of control at 0.1 µM (MDA-MB-231 [17]) was 102% and the growth, % of control at 1 µM (HCT-15 [18]) was 70.5%. The growth, % of control at 0.3 µM (ACHN [19]) was 95%, the growth, % of control at 10 µM (PC-3 [20]) was -18.9% and the GI50 (ACHN [21]) was 0.58 µM. It also gave a growth, % of control at 3 µM (HCT-15 [22]) of 37.8%, a GI50 (PC-3 [23]) of 0.25 µM and a growth, % of control at 0.3 µM (NUGC-3 [24]) of 91.8%. It also gave a growth, % of control at 0.1 µM (HCT-15 [25]) of 93.4%, a growth, % of control at 3 µM (ACHN [26]) of 10.2% and a growth, % of control at 0.3 µM (PC-3 [27]) of 84%. The GI50 (NUGC-3 [28]) was 0.41 µM, the growth, % of control at 3 µM (MDA-MB-231 [29]) was 21.9% and the growth, % of control at 0.3 µM (HCT-15 [30]) was 85.9%. For the same molecule, the growth, % of control at 0.3 µM (MDA-MB-231 [31]) was 101%, the growth, % of control at 1 µM (NCI-H23 [32]) was 53.8% and the growth, % of control at 10 µM (ACHN [33]) was -14.5%. The growth, % of control at 1 µM (ACHN [34]) was 46.3%, the growth, % of control at 0.1 µM (PC-3 [35]) was 90% and the growth, % of control at 1 µM (PC-3 [36]) was 10.8%.
